Test results taken from US20030199494A1, “1,2,3,5-tetrahydrobenzo'c!azepin-4-one derivatives having muscarinic antagonist activity” (priority 2000, published 2003).

Assays:
Type in all cases: cell-based
[1] = system: M3 receptor; test: Functional tissue assay, M3 guinea-pig ileum (antagonist pA2); conditions: ileum versus atria, log10 units
From the text: (§1) Functional Assays of M1, M2 and M3 Receptor Activity
(§2) Initial evaluation of test compounds is by assay of functional tissue responses. This has the advantage that it readily discriminates between agonist partial agonist and antagonist activity
(§3) Sections (2 cm) are cut from the ileum of the killed guinea-pigs, 10 cm from the ileo-caecal junction. One end is attached to a tissue holder/aerator and the other end via a cotton thread to an isometric transducer. The tissue is immersed in gassed normal Ca^2+ Krebs solution at 32±0.5° C. A resting tension of 0.5 g is applied and isometric contractions measured by computer or polygraph.
(§4) Following at least 30 min equilibration to allow twitches or tension to stabilize, cumulative concentration-response curves for the muscarinic agonists are constructed. The concentration is increased in half logarithmic increments after the contraction in the presence of each concentration has plateaued Steady-state contractions at each concentration are measured and the inhibition expressed as a percentage of the baseline twitch height in atria and vas deferens or as the maxi contraction in the ileum. EC50 values for the muscarinic agonists are determined from individual curves as the molar concentration required for 50% inhibition of twitch height or the 50% of maximum contraction (ileum). Geometric mean EC50 values and their 95% confidence limits are calculated.
(§5) A concentration-response curve to the test agonist is established in the absence of antagonist and after achieving the maximum effect, the agonist washed from the bath to restore twitch contractions. Three further concentration-response curves are then obtained in the same manner at approximately 30 min intervals, with the antagonist (Standards—pirenzepine M1, darifenacin M3, methoctramine M2) being introduced to the bath 15 min before each of these subsequent curves.
(§6) Concentration-response curves in the absence and presence of antagonist are measured as described for the agonist studies. The shifts in the concentration-response curves in the presence of antagonist compared with the absence of antagonist are expressed as the dose-ratios (DR) of the EC50 values. pA2 values are then determined from Schild analysis of plots of the mean corrected […] against log molar concentration of antagonist. The slopes of the Schild plots are determined by linear regression and the pA2 values determined from the intercept on the concentration axis (when log(DR−1) is zero). pA2 values are also determined from individual concentrations of antagonist by applying the equations: pA2=log(DR−1) log[B], wherein B is the molar concentration of antagonist.

[2] = molecular target: T1, M3 receptor (Cavia porcellus, UniProt H0W1Z3); test: as above; conditions: guinea-pig ileum, isometric contraction; antagonist pA2 per method; mean ± spread (n pts)
T1 construct: Sections (2 cm) are cut from the ileum of the killed guinea-pigs; from tissue; host or cells: guinea-pig ileum
T1 sequence (H0W1Z3 1-590): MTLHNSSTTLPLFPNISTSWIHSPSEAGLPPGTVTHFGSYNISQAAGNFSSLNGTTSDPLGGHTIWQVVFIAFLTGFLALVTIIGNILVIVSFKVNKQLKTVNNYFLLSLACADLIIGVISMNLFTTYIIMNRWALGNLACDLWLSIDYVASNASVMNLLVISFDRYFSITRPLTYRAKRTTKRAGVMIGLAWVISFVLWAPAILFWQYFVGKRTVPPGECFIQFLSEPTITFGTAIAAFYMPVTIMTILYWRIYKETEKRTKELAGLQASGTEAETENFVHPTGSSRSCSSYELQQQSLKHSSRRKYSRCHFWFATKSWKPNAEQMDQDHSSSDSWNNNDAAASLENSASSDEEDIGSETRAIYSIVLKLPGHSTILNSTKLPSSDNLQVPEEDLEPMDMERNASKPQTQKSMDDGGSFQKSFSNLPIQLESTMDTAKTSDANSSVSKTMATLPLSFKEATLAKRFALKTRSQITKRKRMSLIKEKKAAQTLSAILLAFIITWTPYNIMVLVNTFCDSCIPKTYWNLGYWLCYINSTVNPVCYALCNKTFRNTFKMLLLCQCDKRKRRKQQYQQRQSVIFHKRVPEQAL
From the text: as §1, §2, §3, §4, §5, §6

[3] = molecular target: T2, M2 receptor (Cavia porcellus, UniProt H0VRN8); test: Functional tissue assay, M2 guinea-pig atria (antagonist pA2); conditions: guinea-pig left atria, paced; antagonist pA2 per method; mean ± spread (n pts)
T2 construct: from tissue; host or cells: guinea-pig left atrium
T2 sequence (H0VRN8 1-466): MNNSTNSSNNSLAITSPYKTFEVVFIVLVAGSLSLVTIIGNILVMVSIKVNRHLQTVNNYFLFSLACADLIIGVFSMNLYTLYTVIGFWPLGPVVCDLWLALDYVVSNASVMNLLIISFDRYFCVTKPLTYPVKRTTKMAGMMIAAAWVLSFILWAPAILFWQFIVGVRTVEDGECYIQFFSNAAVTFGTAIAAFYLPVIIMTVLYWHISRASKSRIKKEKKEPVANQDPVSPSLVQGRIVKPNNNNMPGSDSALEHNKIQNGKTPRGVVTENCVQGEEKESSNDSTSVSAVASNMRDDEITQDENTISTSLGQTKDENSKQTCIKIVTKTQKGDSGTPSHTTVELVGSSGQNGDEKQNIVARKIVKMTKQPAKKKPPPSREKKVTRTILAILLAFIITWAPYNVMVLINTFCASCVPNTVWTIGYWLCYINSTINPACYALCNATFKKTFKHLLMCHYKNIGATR
From the text: as §1, §2
Guinea-pigs are killed by a blow to the back of the head and left atrium removed. The atrium is secured to a pari of stainless steel electrodes by means of a cotton thread and immersed in the organ bath containing gassed Krebs solution with normal Ca^2 + at 32±0.50C. Atria are placed at 2 Hz with square-wave pulses of 0.5 ms pulse width. Isometric contractions are recorded by computer or polygraph.
as §4, with “EC50 values for the muscarinic agonists are determined from individual curves as the molar concentration required for 50% inhibition of twitch height or the 50% of maximum contraction (ileum). Geometric mean EC50 values and their 95% confidence limits are calculated.” left out
Concentration-response curves in the absence and presence of antagonist are measured as described for the agonist studies. […]

| Structure (SMILES) | Log10 selectivity [1] | M3 (ileum) [2] | M2 antagonist pA2 (atria) [3] |
| --- | --- | --- | --- |
| O=C1CN(CCNCc2ccccc2)Cc2ccccc2[C@]1(O)C1CCC1 (stereo in doubt) [Compound 19, 2-[2-(benzylamino)ethyl]-5-cyclobutyl-5-hydroxy-1,3,4,5-tetrahydrobenzo[c]azepin-4-one] | 1.6 ± 0.7 | 6.5 ± 0.4 (3 pts) | 4.9 ± 0.6 (4 pts) |
| O=C1CN(CCCNCc2ccccc2)Cc2ccccc2[C@]1(O)C1CCC1 (stereo in doubt) [Compound 22, 2-[3-(Benzylamino)propyl]-5-cyclobutyl-5-hydroxy-1,2,3,5-tetrahydrobenzo[c]azepin-4-one] | 1.5 ± 0.5 | 6.7 ± 0.4 (4 pts) | 5.2 ± 0.3 (4 pts) |
